The text below walks through data of US8435393B2, “Instrument and system for pharmacologic measurement and well vessel used therein” (Panasonic Corporation, priority 2003, dated 2013).

For experiment [1], the system named is carbachol (CCh) sensitive ion channel. The experiment in a line: Intracellular potential response of an HEK cell by the patch clamp method (Comparative Example 2). The class given is cell-based, human. Conditions: HEK-293 cell expressing CCh sensitive ion channel; CCh 100 μM; in 6 sec after CCh is dropped; glass patch pipette. The procedure: (§1) The solution holding section 17 was filled with a culture fluid and 8000 HEK cells are seeded in the holding section in dispersion. The culture fluid used was HEPES buffer DMEM+10 wt % FBS. A cell was sucked from the back surface to be thereby fitted into the hole and thereafter, the culture fluid was replaced with a measurement solution. A composition of the measurement solution was such that Ringer's solution was contained as a base, a Ca concentration was adjusted to 2 mM and an osmotic pressure was set to […].
In FIG. 13, as Comparative Example 2, there is shown results obtained by measurement of a response of an intracellular potential in an HEK cell for the same medicine in a similar way while a glass patch pipette is attached to the cell using a patch clamp method, which is a conventional method for measurement of an intracellular potential. A CCh concentration was 100 μM in a similar way. […] There is observed a noise change (from F to G in FIG. 13) due to a CCh sensitive channel response.
(Patch clamp records ionic current or voltage across a cell membrane.)

For experiment [2] the test system is unchanged. The experiment in a line: Extracellular potential (voltage noise) recording of HEK cells with the instrument of Example 1. The class given is cell-based, human. Conditions: HEK-293 cells; Ringer's solution replaced with Ringer's solution containing CCh 100 μM; FIG. 11 between F1 and G1. Here is the method: as §1
FIG. 11 is a graph showing a voltage noise when the above Ringer's solution was replaced with a Ringer's solution containing CCh 100 μM using Example 1. […] It was recognized that a voltage noise is increased by CCh dropping (in FIG. 11, between F1 and G1). On the other hand, in FIG. 12, there is shown results obtained by conducting a similar experiment in a convention method (Comparative Example 1). The measurement was obtained in a procedure in which a first stage amplification in the preamplifier was multiplication by a factor of 100 and thereafter further amplified by a factor of 100. LPF was set at 5 kHz. A medicine (CCh) was dropped only for a time expressed with an open square in the figure.

For the molecule `C[N+](C)(C)CCOC(N)=O` [CCh, carbachol], the “Depolarization of intracellular potential” value in experiment [1] is on record as “about 10 mV”. The “Voltage noise change on CCh dropping” value in experiment [2] is recorded as “increased”.
